Consider one compound from patent US8058417B2, “Biosynthetic pathway and genes required for tropodithietic acid biosynthesis in silicibacter TM1040” (priority 2006, dated 2011).

In assay [1] the test system is V. anguillarium. The assay can be described thus: Swimming (motility) of V. anguillarium exposed to TDA. As to conditions: exposed to 5 ug TDA per ml (ca. 3x MIC). Format: cell-based, Vibrio anguillarium. The text has this:
It is unlikely that the mechanism of action of TDS involves inhibition of protein, DNA or RNA synthesis, transcription, or translation, all of which would require more time to inhibit.

The subject of another assay is Vibrio anguillarium. The experiment in a line: Minimal Inhibitory Concentration (MIC) of TDA against Vibrio anguillarium. Particulars: FIG. 12. Format: cell-based. The text has this: FIG. 12 is a graph showing the efficacy of TDA against Vibrio anguillarum, as described in Example 10.
The subject of assay [2] is Methicillin-resistant Staphylococcus aureus (MRSA) strain USA300. The assay can be described thus: Minimal Inhibitory Concentration (MIC) of TDA against MRSA. Format: cell-based. The text has this:
Against Methicillin-resistant Staphylococcus aureus (MRSA) strain USA300

Assay [3] relates to V. anguillarium. The experiment in a line: Regrowth of V. anguillarium in fresh nutrient broth after TDA exposure (bactericidal test). Format: cell-based, Vibrio anguillarium. As to conditions: 5 ug per ml (3x MIC) for 90 minutes, FIG. 13. How it is done:
FIG. 13 is a graph showing the bactericidal character of TDA against Vibrio anguillarum, illustrating the results using control (squares; buffer only), control 0.001 (circles), TDA (triangles), and TDA 0.001 (inverted triangles), as described in Example 10. V. anguillarium was exposed to 5 ug TDS per ml (3× MIC) for 90 minutes, after which the cells were washed and suspended in fresh nutrient broth. […] The results, as set forth in the graph of FIG. 13 indicate that the activity of TDA is bactericidal for this bacterial species, not simply bacteristatic.

Assay [4] deals with Mycobacterium tuberculosis strain H37Rv. The experiment in a line: Minimal Inhibitory Concentration (MIC) of TDA against Mycobacterium tuberculosis. Type of assay: cell-based. The text has this:
Against Mycobacterium tuberculosis strain H37Rv

Converted amounts (≈) assume the structure as drawn.

As a reminder, the MIC is the lowest concentration that inhibits growth of the organism. In the case of `O=C(O)c1c(=O)cccc2ssc12` [TDA, tropodithietic acid], the “Time until V. anguillarium stopped swimming” value in the assay with V. anguillarium [1] is at most 70 s. The MIC in the assay on Vibrio anguillarium turned out to be 1.5 µg/mL (≈ 7.07 µM); in assay [2], 40 µg/mL (≈ 188 µM); in assay [4] (M. tuberculosis strain H37Rv), 7.8 µg/mL (≈ 36.7 µM). The “Result in words: killing of V. anguillarium” value with Vibrio anguillarium is reported as “kills”. The “Result in words: killing of MRSA” value in assay [2] is recorded as “kills”. In addition, the “Character of activity (bactericidal vs bacteristatic)” value in the assay on V. anguillarium [3] is recorded as “bactericidal”. For the same compound, the “Growth of exposed cells after washing and suspension in fresh nutrient broth” value in the assay with V. anguillarium [3] (control cells exposed to buffer grew normally) is recorded as “failed to grow”. Moreover, the “Result in words: killing of M. tuberculosis” value in assay [4] was “kills”.
